Assays:
[1] = system: Uveal melanoma cell lines, 92-1 or MP41; assay: Comparison of BRG1/BRM inhibitor to clinical PKC and MEK inhibitors, cell growth (Cell-titer glo, 3 days); assay type: cell-based; settings: 92-1 or MP41 cells, versus LXS196 and Selumetinib
Description: Procedure: Uveal melanoma cell lines, 92-1 or MP41, were plated in 96 well plates in the presence of growth media (See Table 6). […] Cells were incubated at 37 degrees Celsius for 3 days. After three days of treatment, cell growth was measured with Cell-titer glow (Promega), and luminescence was read on an Envision plate reader (Perkin Elmer).

BRG-1 = BRG-1 (Homo sapiens, UniProt P51532); assay: ATPase catalytic activity assay of BRG-1 (ADP-Glo); assay type: biochemical; settings: ATPase catalytic activity, ADP-Glo; for IC50: read-out: BRG1 IC50 (μM)*; for Emax: read-out: BRG1 Max % Inhibition
In short: (§1)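 ADP formed by the ATPase reaction was quantified by ADP-Glo luminescence. After the reaction, unconsumed ATP was depleted (40 min, room temperature), then ADP was converted to ATP for luciferase detection (60 min, room temperature) before reading on a luminometer.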

BRM = BRM (Homo sapiens, UniProt P51531); assay: ATPase catalytic activity assay of BRM (ADP-Glo); assay type: biochemical; settings: for IC50: read-out: BRM IC50 (μM)*
In short: as §1

BRM, sequence (P51531 whole entry): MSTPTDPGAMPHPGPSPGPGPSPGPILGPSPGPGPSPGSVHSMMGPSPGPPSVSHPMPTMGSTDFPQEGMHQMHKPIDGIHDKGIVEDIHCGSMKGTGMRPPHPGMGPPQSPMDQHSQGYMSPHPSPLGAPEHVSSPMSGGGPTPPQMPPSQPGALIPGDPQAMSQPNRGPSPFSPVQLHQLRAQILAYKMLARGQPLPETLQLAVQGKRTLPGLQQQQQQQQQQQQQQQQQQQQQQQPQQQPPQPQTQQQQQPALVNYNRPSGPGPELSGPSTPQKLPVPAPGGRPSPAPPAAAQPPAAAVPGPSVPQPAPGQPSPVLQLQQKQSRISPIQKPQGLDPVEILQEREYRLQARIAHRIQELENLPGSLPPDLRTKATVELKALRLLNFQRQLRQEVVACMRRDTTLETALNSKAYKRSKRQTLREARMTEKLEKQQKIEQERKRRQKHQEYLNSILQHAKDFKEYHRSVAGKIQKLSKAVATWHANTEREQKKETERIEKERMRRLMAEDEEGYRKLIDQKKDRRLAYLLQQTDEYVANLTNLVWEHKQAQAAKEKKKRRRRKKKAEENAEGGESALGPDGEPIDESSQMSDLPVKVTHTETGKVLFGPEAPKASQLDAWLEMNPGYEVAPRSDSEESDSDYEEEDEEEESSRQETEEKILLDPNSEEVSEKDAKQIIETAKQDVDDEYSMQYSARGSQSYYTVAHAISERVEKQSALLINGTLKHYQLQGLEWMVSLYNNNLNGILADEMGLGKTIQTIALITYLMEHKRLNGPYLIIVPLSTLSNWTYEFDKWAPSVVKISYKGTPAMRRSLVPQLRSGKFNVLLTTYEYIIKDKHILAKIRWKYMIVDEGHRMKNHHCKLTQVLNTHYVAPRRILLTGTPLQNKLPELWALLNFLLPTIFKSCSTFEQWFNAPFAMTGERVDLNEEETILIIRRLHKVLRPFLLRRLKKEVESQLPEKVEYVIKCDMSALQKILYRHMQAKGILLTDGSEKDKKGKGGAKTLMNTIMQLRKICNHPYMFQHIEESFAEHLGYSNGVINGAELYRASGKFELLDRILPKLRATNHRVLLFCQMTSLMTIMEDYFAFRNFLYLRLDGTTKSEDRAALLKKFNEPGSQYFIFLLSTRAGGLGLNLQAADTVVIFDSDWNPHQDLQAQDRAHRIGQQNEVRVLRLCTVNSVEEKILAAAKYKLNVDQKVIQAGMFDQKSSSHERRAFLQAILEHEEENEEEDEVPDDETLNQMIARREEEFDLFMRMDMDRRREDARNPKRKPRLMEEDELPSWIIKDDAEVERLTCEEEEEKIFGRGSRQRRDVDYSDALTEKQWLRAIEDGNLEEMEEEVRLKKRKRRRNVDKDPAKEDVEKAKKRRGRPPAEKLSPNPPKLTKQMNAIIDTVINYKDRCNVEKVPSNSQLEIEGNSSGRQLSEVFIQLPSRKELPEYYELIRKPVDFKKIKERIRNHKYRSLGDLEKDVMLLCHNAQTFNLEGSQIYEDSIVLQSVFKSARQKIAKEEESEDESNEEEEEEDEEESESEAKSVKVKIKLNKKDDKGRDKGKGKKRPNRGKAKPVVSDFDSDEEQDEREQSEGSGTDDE
BRG-1, sequence (P51532 whole entry): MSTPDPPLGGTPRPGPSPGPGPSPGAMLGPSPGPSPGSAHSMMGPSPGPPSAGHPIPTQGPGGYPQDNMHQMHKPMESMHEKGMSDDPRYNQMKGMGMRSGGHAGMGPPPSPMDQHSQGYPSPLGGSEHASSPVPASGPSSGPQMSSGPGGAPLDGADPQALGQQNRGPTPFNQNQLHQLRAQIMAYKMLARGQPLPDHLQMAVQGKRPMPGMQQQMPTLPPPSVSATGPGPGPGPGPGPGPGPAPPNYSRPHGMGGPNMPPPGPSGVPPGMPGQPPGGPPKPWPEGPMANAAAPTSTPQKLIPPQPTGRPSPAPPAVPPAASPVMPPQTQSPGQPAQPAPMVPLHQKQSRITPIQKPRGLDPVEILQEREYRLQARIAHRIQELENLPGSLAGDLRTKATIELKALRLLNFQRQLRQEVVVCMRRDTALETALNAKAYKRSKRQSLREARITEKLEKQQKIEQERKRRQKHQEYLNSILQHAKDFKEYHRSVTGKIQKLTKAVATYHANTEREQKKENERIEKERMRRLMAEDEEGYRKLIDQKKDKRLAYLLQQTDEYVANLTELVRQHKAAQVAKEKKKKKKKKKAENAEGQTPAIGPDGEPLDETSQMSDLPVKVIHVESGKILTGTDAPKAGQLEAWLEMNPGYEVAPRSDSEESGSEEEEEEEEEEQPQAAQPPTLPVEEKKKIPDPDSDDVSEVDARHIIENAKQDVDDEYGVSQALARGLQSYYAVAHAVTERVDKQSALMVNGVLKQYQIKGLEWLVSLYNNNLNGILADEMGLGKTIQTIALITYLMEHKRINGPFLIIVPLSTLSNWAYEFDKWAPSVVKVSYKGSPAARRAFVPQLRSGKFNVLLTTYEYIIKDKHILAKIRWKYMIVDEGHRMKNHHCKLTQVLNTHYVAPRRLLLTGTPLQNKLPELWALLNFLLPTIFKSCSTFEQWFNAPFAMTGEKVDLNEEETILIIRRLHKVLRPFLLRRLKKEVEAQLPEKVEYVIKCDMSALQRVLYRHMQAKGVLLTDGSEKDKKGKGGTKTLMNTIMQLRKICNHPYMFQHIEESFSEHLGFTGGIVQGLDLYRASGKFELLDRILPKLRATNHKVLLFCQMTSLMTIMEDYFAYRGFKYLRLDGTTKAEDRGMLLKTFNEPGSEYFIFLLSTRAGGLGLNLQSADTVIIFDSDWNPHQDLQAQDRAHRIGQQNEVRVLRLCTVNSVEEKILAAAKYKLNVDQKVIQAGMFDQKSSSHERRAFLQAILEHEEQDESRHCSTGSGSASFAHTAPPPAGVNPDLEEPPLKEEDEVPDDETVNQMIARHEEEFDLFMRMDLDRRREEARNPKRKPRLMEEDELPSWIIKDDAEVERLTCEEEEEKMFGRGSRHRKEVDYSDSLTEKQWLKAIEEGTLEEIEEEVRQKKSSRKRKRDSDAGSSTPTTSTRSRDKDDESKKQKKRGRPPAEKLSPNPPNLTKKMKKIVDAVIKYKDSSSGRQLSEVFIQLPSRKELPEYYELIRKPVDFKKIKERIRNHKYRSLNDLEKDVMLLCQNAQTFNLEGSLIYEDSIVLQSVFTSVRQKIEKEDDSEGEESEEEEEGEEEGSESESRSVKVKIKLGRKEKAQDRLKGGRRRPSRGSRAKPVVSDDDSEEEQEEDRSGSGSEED

| Compound | IC50 (BRG-1) | Emax (BRG-1) | BRM Max % Inhibition (BRM) | IC50 (BRM) | growth inhibition of uveal melanoma cells compared with the clinical PKC and MEK inhibitors ([1]; 0 to 10 micromolar, 3 days, FIGS. 2A and 2B) | onset of inhibition compared with the clinical PKC and MEK inhibitors [1] |
| --- | --- | --- | --- | --- | --- | --- |
| CSCC[C@H](NC(=O)c1ccc(N)cc1)C(=O)Nc1nc(-c2cccc(-c3ccncc3)c2)cs1 [Compound A] | – | – | – | – | comparable growth inhibition | faster onset of inhibition |
| Cc1nccc(-c2cccc(-c3csc(NC(=O)CNC(=O)c4ccc5c(c4)[C@](C)(CO)CCC5)n3)n2)n1 [Compound 212, (4R)-4-(hydroxymethyl)-4-methyl-N-[2-[[4-[6-(2-methylpyrimidin-4-yl)-2-pyridyl]thiazol-2-yl]amino]-2-oxo-ethyl]tetralin-6-carboxamide] | > 5 µM | < 30% | >70% | 0.1 to 1 µM | – | – |
| Cn1ncc(-c2cccc(-c3csc(NC(=O)CNC(=O)c4cccc(C(C)(C)CO)c4)n3)c2)n1 [Compound 185, 3-(1-hydroxy-2-methylpropan-2-yl)-N-(2-((4-(3-(2-methyl-2H-1,2,3-triazol-4-yl)phenyl)thiazol-2-yl)amino)-2-oxoethyl)benzamide] | 1 to 5 µM | > 80% | >95% | 0.1 to 1 µM | – | – |
| CCC(C)(CO)c1cccc(C(=O)NCC(=O)Nc2nc(-c3cccc(-c4ccncc4)c3)cs2)c1 (stereo not shown) [Compound 242, 3-[1-(hydroxymethyl)-1-methyl-propyl]-N-[2-oxo-2-[[4-[3-(4-pyridyl)phenyl]thiazol-2-yl]amino]ethyl]benzamide] | 1 to 5 µM | > 50% | >80% | 0.1 to 1 µM | – | – |
| CC1(CO)CCc2ccc(C(=O)NCC(=O)Nc3nc(-c4ccn5ccnc5c4)cs3)cc21 (stereo in doubt) [Compound 178, (R)-3-(hydroxymethyl)-N-(2-((4-(imidazo[1,2-a]pyridin-7-yl)thiazol-2-yl)amino)-2-oxoethyl)-3-methyl-2,3-dihydro-1H-indene-5-carboxamide] | > 5 µM | > 50% | >80% | 0.1 to 1 µM | – | – |
| NCC1(c2cccc(C(=O)NCC(=O)Nc3nc(-c4cccc(-c5ccncc5)c4)cs3)c2)CC1 [Compound 72, 3-(1-(aminomethyl)cyclopropyl)-N-(2-oxo-2-((4-(3-(pyridin-4-yl)phenyl)thiazol-2-yl)amino)ethyl)benzamide] | > 5 µM | > 50% | >80% | 0.1 to 1 µM | – | – |
| C[C@@]1(C#N)COCc2ccc(C(=O)NCC(=O)Nc3nc(-c4cccc([C@@]56CCOC[C@@H]5C6)c4)cs3)cc21 [Compound 294, (R)-N-(2-((4-(3-((1R,6S)-3-oxabicyclo[4.1.0]heptan-6-yl)phenyl)thiazol-2-yl)amino)-2-oxoethyl)-4-cyano-4-methylisochromane-6-carboxamide] | 0.1 to 1 µM | > 95% | >95% | < 0.1 µM | – | – |

Now from value to compound, other results behind:

| IC50 (BRG-1) | Emax (BRG-1) | BRM Max % Inhibition (BRM) | IC50 (BRM) | Compound | growth inhibition of uveal melanoma cells compared with the clinical PKC and MEK inhibitors ([1]; 0 to 10 micromolar, 3 days, FIGS. 2A and 2B) | onset of inhibition compared with the clinical PKC and MEK inhibitors [1] |
| --- | --- | --- | --- | --- | --- | --- |
| < 0.1 µM | > 95% | >95% | < 0.1 µM | Cn1ccc2ccc(-c3csc(NC(=O)CNC(=O)c4ccc5c(c4)[C@](C)(F)COC5)n3)cc2c1=O [Compound 389, (S)-4-fluoro-4-methyl-N-(2-((4-(2-methyl-1-oxo-1,2-dihydroisoquinolin-7-yl)thiazol-2-yl)amino)-2-oxoethyl)isochromane-6-carboxamide] | – | – |
| 0.1 to 1 µM | > 95% | >95% | < 0.1 µM | COCC(NC(=O)c1ccc2c(c1)[C@](C)(F)COC2)C(=O)Nc1nc(-c2cccc(C(F)F)c2)cs1 (stereo in doubt) [Compound 327, (S)-N-((R)-1-((4-(3-(difluoromethyl)phenyl)thiazol-2-yl)amino)-3-methoxy-1-oxopropan-2-yl)-4-fluoro-4-methylisochromane-6-carboxamide] | – | – |
| 0.1 to 1 µM | > 95% | >95% | < 0.1 µM | COC(=O)N1CCCC(c2csc(NC(=O)CNC(=O)c3ccc4c(c3)[C@](C)(F)COC4)n2)C1 (stereo in doubt) [Compound 302, methyl (S)-3-(2-(2-((S)-4-fluoro-4-methylisochromane-6-carboxamido)acetamido)thiazol-4-yl)piperidine-1-carboxylate] | – | – |
| 0.1 to 1 µM | > 95% | >95% | < 0.1 µM | C[C@@]1(C#N)COCc2ccc(C(=O)NCC(=O)Nc3nc(-c4cccc(C56CCOCC5C6)c4)cs3)cc21 (stereo partly drawn) [Compound 305, (R)-N-(2-((4-(3-(3-oxabicyclo[4.1.0]heptan-6-yl)phenyl)thiazol-2-yl)amino)-2-oxoethyl)-4-cyano-4-methylisochromane-6-carboxamide] | – | – |
| > 5 µM | > 80% | >80% | 0.1 to 1 µM | COc1cccc(-c2csc(NC(=O)CNC(=O)c3ccc4c(c3)C(C)(C#N)CCN4C)n2)c1 (stereo not shown) [Compound 394, 4-cyano-N-(2-((4-(3-methoxyphenyl)thiazol-2-yl)amino)-2-oxoethyl)-1,4-dimethyl-1,2,3,4-tetrahydroquinoline-6-carboxamide] | – | – |

Source: US12685735B2 (Foghorn Therapeutics Inc., priority 2020, dated 2026)
